According to patent publication US11634466B2, “Musclin peptides and methods of use thereof” (UNIVERSITY OF IOWA RESEARCH FOUNDATION, priority 2016, dated 2023):

Experiments:
Type in all cases: cell-based
OPA1 mRNA = OPA1 mRNA normalized to HPRT by PCR in myotube culture; conditions: n=3
Procedure: RNA isolation and quantitative reverse transcriptase polymerase chain reaction (qRT-PCR): Total RNA from mouse tissues and primary myocytes was isolated using RNeasy RNA Isolation Kit (Qiagen). A 1 μg primary myocyte or tissue RNA sample was used to synthesize cDNA in 50 μl reactions using Oligo(dT) as primer and SuperScript III Reverse Transcriptase (Invitrogen). Quantitative real-time PCR was performed on Mastercycler epgradient S (Eppendorf) using SYBR green based PCR reactions. For quantitative RT-PCR, 1 μl of reverse transcription reaction was mixed with 10 pmoles each specific primer and 12.5 μl SYBR PCR Master Mix (BioRad). The reaction was incubated for 40 cycles consisting of denaturation at 95° C. for 10 s and annealing/extension at 59.9° C.—for musclin, HPRT, Nrf2, 56° C.—for PGC1α, Tfam, Nrf1, for 1 min. The quality of the PCR product was routinely checked by a thermal denaturation curve following the qPCR reactions. The threshold cycle (CT) was determined by Realplex2 software (Eppendorf), and quantification of relative mRNA levels was performed by relative mRNA levels was performed by ΔΔCT method. […]

[1] = system: cGMP production in murine primary myoblasts; assay: cGMP production in skeletal myoblast culture exposed to ANP and musclin; conditions: n=3
Procedure: Cyclic GMP levels were measured using cyclicGMP EIA kit (Cayman Chemical Company, Ann Arbor, Mich.). Mice were exercised for 5 days, 12 m/min, 45 min before tissue collection. At the day of the experiment mice were exercised 12 m/min, 20 min, sedated with isoflurane and gastrocnemius muscle tissue was collected. Cyclic nucleotides were extracted using 5% trichloracetic acid. Samples were acetylated and used for cGMP level measurements according to the manufacturer's protocol.
(§1) Mouse primary myoblasts were isolated from gastrocnemius muscle of 4-6 weeks old mice. Fresh muscle tissue was digested with 2 mg/ml collagenase II in DMEM-F12 for 1.5 h at 37° C.; then 30 min at 37° C. with 1 mg/ml collagenase II and 0.5 mg/ml dispase in DMEM-F12. Tissue was ground and passed through a 100 μm then 70 μm cell strainer and spun at 1000 rpm for 10 min. Myoblasts were resuspended in DMEM-F12 supplemented with 20% FBS, 40 ng/ml bFGF, non-essential amino acids, 1 mM β-mercaptoethanol. Cells were plated on matrigel coated dishes. Cells were maintained in DMEM-F12 supplemented with 20% FBS, 10 ng/ml bFGF, non-essential amino acids, 1 mM β-mercaptoethanol until 80% confluent. Then they were differentiated in DMEM-F12 supplemented with 2% FBS and insulin-transferrin-selenium for 10 days. Human skeletal myoblast primary culture (lot #SLSK002, Zenbio, Research Triangle Park, NC) was maintained according to the supplier's manual.

[2] = system: musclin mRNA in murine cultured primary myoblasts; assay: Musclin mRNA normalized to HPRT in murine cultured primary myoblasts
Procedure: (§2) RNA isolation and quantitative reverse transcriptase polymerase chain reaction (qRT-PCR): Total RNA from mouse tissues and primary myocytes was isolated using RNeasy RNA Isolation Kit (Qiagen). A 1 μg primary myocyte or tissue RNA sample was used to synthesize cDNA in 50 μl reactions using Oligo(dT) as primer and SuperScript III Reverse Transcriptase (Invitrogen). Quantitative real-time PCR was performed on Mastercycler epgradient S (Eppendorf) using SYBR green based PCR reactions. For quantitative RT-PCR, 1 μl of reverse transcription reaction was mixed with 10 pmoles each specific primer and 12.5 μl SYBR PCR Master Mix (BioRad). The reaction was incubated for 40 cycles consisting of denaturation at 95° C. for 10 s and annealing/extension at 59.9° C.—for musclin, HPRT, Nrf2, 56° C.—for PGC1α, Tfam, Nrf1, for 1 min. The quality of the PCR product was routinely checked by a thermal denaturation curve following the qPCR reactions. The threshold cycle (CT) was determined by Realplex2 software (Eppendorf), and quantification of relative mRNA levels was performed by ΔΔCT method. The primers used in this study are HPRT: HPRTF—GGACCTCTCGAAGTGTTGGATAC (SEQ ID NO: 16), HPRTR—GCTCATCTTAGGCTTTGTATTTGGCT (SEQ ID NO: 17); musclin: MuscF-TGTGGACTTAGCATCACAGG (SEQ ID NO: 18), MuscR-AGC TGA GAG TCT GTC AAG G (SEQ ID NO: 19); PGC1α: PGC1aF-TGATGTGAATGACTTGGATACAGACA (SEQ ID NO: 20), PGC1αR-GCTCATTGTTGTACTGGTTGGATATG (SEQ ID NO: 21); TfamF—GGAATGTGGAGCGTGCTAAAA (SEQ ID NO: 22), TfamR—TGCTGGAAAAACACTTCGGAATA (SEQ ID NO: 23); Nrf1F—CGC AGC ACC TTT GGA GAA (SEQ ID NO: 24, Nrf1R—CCCGACCTGTGGAATACTTG (SEQ ID NO: 25); Nrf2F—CAG CTC AAG GGC ACA GTG C (SEQ ID NO: 26), Nrf2R—GTG GCC CAA GTC TTG CTC C (SEQ ID NO: 27).
as §1

[3] = system: musclin mRNA in human cultured primary myoblasts; assay: Musclin mRNA normalized to HPRT in human cultured primary myoblasts
Procedure: as §2, §1

[4] = system: Akt and FOXO1 phosphorylation in cultured murine primary myoblasts; assay: Akt and FOXO1 phosphorylation by western blot in primary myoblasts with Ca2+ ionophore; conditions: 1 μM ionophore, 1 mM Ca2+, n=4
Procedure: Western blotting: Whole cell protein extracts were prepared by homogenizing skeletal muscle tissue in NaCl 150 mM, Tris-HCl 50 mM (pH 7.8), supplemented with 1.5% Triton X-100, protease and phosphatase inhibitors (Roche). Nuclear extracts were obtained using the Subcellular Protein Fractionation Kit for Tissues (Thermo Scientific).
Electrophoresis was performed on 3-8% gradient Nu-Page Tris-Acetate or 10% Nu-Page Bis-Tris gels and transferred to 0.2 μm Sequi-Blot PVDF membranes (Bio-Rad). The membranes were blotted with total AKT1 and phospho-AKT1([…], T308, Cell Signaling), FOXO1 (Cell Signaling), total OXPHOS (rodent, Abcam), musclin (custom rabbit IgG produced against partial mouse musclin sequence NH2-sfsgfgspldrlsagsvehrgkqrkavdhskkr-COOH (SEQ ID NO: 4), corresponding to amino acids 80-112, Gen Bank ID: AAS87598.1, Anaspec, Fremont, Calif.), and GAPDH (Santa Cruz Biotechnologies) antibodies. Densitometric analysis of western blots was performed using Adobe Photoshop (Adobe Systems, San Jose, Calif.).
as §1

[5] = 0.5 μM ionophore, 1.0 mM Ca2+, n=3
[6] = 1 μM ionophore, 1.0 mM Ca2+, n=3

In the case of `CC[C@H](C)[C@@H]1NC(=O)[C@H](CCCNC(=N)N)NC(=O)[C@H](CC(=O)O)NC(=O)[C@H](CCSC)NC(=O)[C@H](CCCNC(=N)N)NC(=O)CNC(=O)CNC(=O)[C@H](Cc2ccccc2)NC(=O)[C@@H](NC(=O)[C@H](CO)NC(=O)[C@H](CO)NC(=O)[C@H](CCCNC(=N)N)NC(=O)[C@H](CCCNC(=N)N)NC(=O)[C@H](CC(C)C)NC(=O)[C@@H](N)CO)CSSC[C@@H](C(=O)N[C@@H](CC(N)=O)C(=O)N[C@@H](CO)C(=O)N[C@@H](Cc2ccccc2)C(=O)N[C@@H](CCCNC(=N)N)C(=O)N[C@@H](Cc2ccc(O)cc2)C(=O)O)NC(=O)CNC(=O)[C@H](CC(C)C)NC(=O)CNC(=O)[C@H](CO)NC(=O)[C@H](CCC(N)=O)NC(=O)[C@H](C)NC(=O)CNC1=O` [ANP, atrial natriuretic peptide, reference compound], the “OPA1 mRNA normalized to HPRT” value (OPA1 mRNA; ANP 5 μM) is reported as 4.21±0.24, the cGMP production ([1]; 1 μM ANP) is reported as 3.491±0.057 fmol/μg protein and the cGMP production ([1]; 5 μM ANP) is reported as 6.046±0.074 fmol/μg protein.

For `CNc1ccc2oc(C[C@H]3O[C@@]4(CC[C@H]3C)O[C@H]([C@H](C)C(=O)c3ccc[nH]3)[C@H](C)C[C@H]4C)nc2c1C(=O)O` [A23187], the “musclin mRNA” value [2, 5] was 2.20±0.06 AU, the “musclin mRNA” value [2, 6] was 3.60±0.81 AU and the “musclin mRNA” value ([2]; ionophore with removal of extracellular Ca2+ from the medium, n=3, p=NS vs. control) was 0.96±0.012 AU. The “musclin mRNA” value [3, 5] was 3.02±0.23 AU, the “musclin mRNA” value ([3]; 0.5 μM ionophore, Ca2+-free buffer, n=3, p=NS) was 0.74±0.18 AU and the “musclin mRNA” value [3, 6] was 3.95±0.83 AU. For the same molecule, the “musclin mRNA” value ([3]; 1 μM ionophore, Ca2+-free buffer, n=3, p=NS) was 0.79±0.18 AU, the p-Akt/GAPDH [4] was 0.91±0.05 and the “pAkt/total Akt” value [4] was 0.66±0.03. The pFOXO1/GAPDH [4] was 0.39±0.04 and the “pFOXO1/total FOXO1” value [4] was 0.27±0.03.

For `Nc1nc2c(nc(Br)n2[C@@H]2O[C@@H]3COP(=O)(O)O[C@H]3[C@H]2O)c(=O)[nH]1` [8-Br-cGMP], the “OPA1 mRNA normalized to HPRT” value (OPA1 mRNA; 8-Br-cGMP) was 5.61±0.36.

With `O=c1[nH]c2ccccc2n1C1CCN(Cc2ccc(-c3nc4cc5[nH]cnc5cc4nc3-c3ccccc3)cc2)CC1` [Akt inhibitor-viii] the “musclin mRNA” value ([2]; myoblasts pre-treated with Akt inhibitor-viii before Ca2+ ionophore, n=3, p=NS vs. control) was 1.09±0.03 AU.
